# Laboratory results reported in a melting point compilation (Tetko et al.; mined from patent text by program, amines drawn as free bases though some values may be those of a salt).
row,Compound,melting point [°C]
1,Oc1cc(OCCCCCCCCCCOc2ccc(C(=S)c3ccc(-c4ccccc4)cc3)c(O)c2)ccc1C(=S)c1ccc(-c2ccccc2)cc1,125 to 127
2,CCCS(=O)(=O)Nc1ccc2c(c1)S(=O)(=O)C=C(c1c(O)c3cc(F)ccc3n(CCC3CC3)c1=O)N2,145 to 150
3,Nc1c(F)c(N2C[C@@H](N)[C@@H](n3ccnn3)C2)c(F)c2c1c(=O)c(C(=O)O)cn2-c1ccc(F)cc1F (relative stereo),279 to 281
4,O=C(O)C1CC(C(=O)O)C(C(=O)O)C1C(=O)O (centres undefined),186
5,CC1CC(N)=NN1c1ccc(Cl)cn1 (centres undefined),168 to 170
6,CCC(=O)Nc1nc(C(Cl)(Cl)Cl)ns1,150
7,N#CC(C#N)=C(NC1CCN(Cc2ccccc2)CC1)NC1CCN(Cc2ccccc2)CC1,147 to 148
8,CCCc1nc(Cl)c(C(=O)O)n1Cc1ccc(C2(C(=O)OCC)CC=CC2)s1,114 to 115
9,COc1cc(CC(=O)NCCCOc2ccc(C)c(C)c2)ccc1OCCN,103 to 106
10,COCc1cccc(CC=NO)c1[N+](=O)[O-],92 to 95
11,COC(=O)C(C)(C)c1ccc(C(=O)Nc2cn3cc(-c4cn[nH]c4)ccc3n2)cc1,248 to 249
12,CC1CCCC(C)N1NC(=O)Nc1cccc2c1C(=O)c1c-2n[nH]c1-c1ccc(N2CCNCC2)cc1 (centres undefined),270
13,CCCc1nn(-c2ccc(C(F)(F)F)cn2)cc1CCCOc1cc(CCC(=O)O)n(C2CCCCC2)n1,164 to 165
14,CC(C)(C)OC(=O)N1C2C=CC(C2)N1CC(O)C(Cc1ccccc1)NC(=O)OCc1ccccc1 (mixture of isomers),111 to 113
15,CC(C)(C)c1cc(OCc2cccc(-c3nnn[nH]3)c2)cc(C(C)(C)C)c1O,163 to 164
16,CCOCC(=NNc1ccc(C(F)(F)F)cc1)C(=O)O,96 to 99
17,CCCC1(C)C(=O)N(COC(=O)c2c(Cl)cccc2Cl)S(=O)(=O)N1C (centres undefined),93 to 95
18,CCOC(=O)C1(C(=O)OCC)CCC2(NCCc3cc(OC)c(OC)cc32)C(C2=NCCc3cc(OC)c(OC)cc32)C1 (centres undefined),116 to 118
19,CCn1c(=O)c2cnc(N)nc2n(CC)c1=O,230 to 232
20,Cc1cc(-c2c[nH]cc2C#N)c(Cl)cc1F,132 to 133

row,Compound,melting point [°C]
1,COC(=O)C=C1C(=O)N(C)C(=O)N1C,49.5
2,COCCN(C1CCS(=O)(=O)C1)S(=O)(=O)c1ccc(Nc2nccc(Nc3ccc(F)cc3)n2)cc1 (centres undefined),150
3,CC1CCNC(C)C1(C)CCCO (centres undefined),89 to 91
4,O=C(c1ccc(F)cc1)N1CC2CC2(c2ccc(Cl)cc2)C1 (centres undefined),130 to 132
5,N#CCCOc1ccccc1OCCC#N,124 to 125
6,CCC(NC(=O)C(F)F)c1ccc(Cl)c2nc3n(c12)CCCN3c1c(Cl)cc(Cl)cc1Cl (centres undefined),211 to 213
7,CCN(CC)CC1CN(c2c(F)cc3c(=O)c(C(=O)O)cn(C4CC4)c3c2F)CCO1 (centres undefined),155 to 157
8,COC(=O)C(Cc1ccccc1)Oc1ccc2cc(-c3ccc(-c4ccccc4)[nH]3)ccc2c1 (centres undefined),140 to 141
9,COc1cc(OC)cc(-c2nc[nH]c2-c2ccc(OC)c(O)c2)c1,181 to 182
10,CC[Si](C#Cc1ccc2nc(-n3ccnc3)nc(NCCOC)c2c1)(CC)CC,158 to 160
11,CC(C)(C)OC(=O)C(ON)c1ccccc1 (centres undefined),48.2 to 49.6
12,O=[N+]([O-])c1cc2c(NCc3ccc4c(c3)OCO4)nc(-n3ccnc3)nc2s1,245
13,OC(CCC(O)(C(F)(F)F)C(F)(F)F)(C(F)(F)F)C(F)(F)F,96 to 98
14,CCOC(=O)c1cc(Oc2ccc3c(C(=O)Nc4cccc(C(F)(F)F)c4)cccc3c2)ncn1,194
15,CC(=O)c1ccc(NS(C)(=O)=O)c(Oc2ccccc2F)c1,92 to 94
16,CCOP(=O)(OCC)Oc1cc(C(C)C)c(NC(=O)CN2CCN(CCSc3nc4ccccc4o3)CC2)c(C(C)C)c1,108 to 109
17,CCCCC(CC)CN1C(=O)C(=Cc2cc3sc(-c4ccc(N(c5ccccc5)c5ccccc5)cc4)cc3s2)C(C)=C(C#N)C1=O (centres undefined),208 to 213
18,CC(=O)O[C@H]1CC[C@H](c2ccc(C#N)cc2)CC1,130 to 131
19,O=C1CC(c2cccc3c2OCO3)=Nc2ccc(N3CCCC3)cc21,330 to 332
20,CCOc1cc(OCCCc2cn(-c3cc(C(F)(F)F)ccn3)nc2OCC)ccc1CCC(=O)OC,79 to 81

row,Compound,melting point [°C]
1,CC1(C)NCC(O)(c2ccccc2)CN1,108
2,CC(O)(c1ccc(C#N)cc1)c1cncs1 (centres undefined),162 to 164
3,CC(C)CCCC(C)C1CC(O)C2=C3C(O)CC4CC(OC(=O)c5ccccc5)CCC4(C)C3CCC21C (centres undefined),178 to 179
4,CCCNC(=O)C1CCCN1C(=O)OCc1ccccc1 (centres undefined),74 to 75
5,CCOC(=O)C(NC(C)=O)(C(=O)OCC)C1=Nc2ccc(Cl)cc2C(c2ccccc2F)=NC1,150 to 180
6,COc1c(F)cc(-c2cncc(OC3SCC(OC(C)=O)C(OC(C)=O)C3OC(C)=O)c2)cc1F (centres undefined),203
7,CS(=O)(=O)Nc1cc2occ(S(C)(=O)=O)c(=O)c2cc1Oc1ccccc1,> 250
8,Cc1nc(N(C)C)ncc1OCc1ccccc1,73 to 74
9,C=C(C(=O)c1cc2c(c(C)c1C)OC(C(=O)O)C2)C(C)C (centres undefined),97
10,CC(C)(C)OC(=O)N1CC(c2n[nH]c(-c3ccccn3)n2)C1,220
11,CC(C)(c1ccc(O)cc1)c1ccc(-c2ccc(C(C)(C)c3ccc(O)cc3)cc2)cc1,195 to 196
12,CCCn1c(=O)c2c(nc(/C=C/c3ccc(OC(C)=O)c(OC)c3)n2C)n(CCC)c1=O,179 to 181
13,CCN1CCO[C@]2(C)c3cccc4[nH]cc(c34)C[C@@H]12 (relative stereo),129 to 130
14,N#CC=Cc1ccc(C=O)cc1,122
15,CC(=O)Nc1ccc(Oc2c([N+](=O)[O-])cc(C(=O)O)cc2S(N)(=O)=O)cc1,305
16,C#CCOc1cc(-c2ncnc(C(F)(F)F)c2Cl)c(F)cc1Cl,112 to 113
17,COc1cc(OC)cc(-c2nc[nH]c2-c2ccc(OC)c(N)c2F)c1,118 to 120
18,CC(C)(C#N)c1cc(CO)cc(C(C)(C)C#N)c1,151 to 153
19,CCNc1ccc2nnc(-c3ncc([N+](=O)[O-])n3C)n2n1,258 to 263
20,CCOc1cc(-n2ccnc2)ccc1C#N,134 to 136

# Continued, values first:
row,melting point [°C],Compound
1,145 to 147,CCS(=O)(=O)c1ccc(C(=O)NCc2ccc3c(c2)C(=O)N(C2(C)CCC(=O)NC2=O)C3=O)nc1 (centres undefined)
2,203 to 204,Cc1nc(-n2cccc(C(F)(F)F)c2=O)sc1C(=O)NCc1ccccc1
3,226 to 228,Nc1cccc(-c2nc3sccn3c2-c2ccnc(N[C@@H]3CCCN(S(=O)(=O)c4ccc(Cl)cc4)C3)n2)c1
4,85,COC=C(C(=O)OC)n1ccc2ccc(-c3nccc(-c4ccccc4)n3)cc21
5,140,COc1cccc(-c2ccc3c(c2)CC[C@H]2N(C)C(=O)CC[C@]32C)c1
6,104,CCCCCCCCc1nc2c(N)nc3ccccc3c2n1CCOCCCc1ccccc1
7,154 to 155,COc1ccc(S(=O)(=O)NC(C)c2ccccc2-c2ccc(F)cc2F)cc1 (centres undefined)
8,91 to 93,COC(=O)c1ccc(C=O)cc1SCc1ccccc1
9,235 to 240,COc1cc2ccnc(N3CCN(c4ccc5c(c4)CCC(=O)N5)CC3)c2cc1OC
10,112 to 113,CCOc1cc(N(C)C)c(Cl)cc1C(=O)NC1CCN(Cc2ccccc2)C1 (centres undefined)
11,195 to 197,Cn1cc(C(=O)NCc2ccc(Cl)cc2)c(=O)c2cccc(C#CCCO)c21
12,288 to 289,Oc1ccccc1C=NC1=NN(c2cnc3ccccc3c2)CC1
13,183 to 185,Cc1cccc(CN2C(=O)C3(COc4cc5c(cc43)OCCO5)c3ccccc32)n1 (centres undefined)
14,90 to 92,O=c1n(CCCC2CCCC2)ccn1-c1ccc(NS(=O)(=O)c2ccc3c(c2)CCC(CNCC(O)c2cccnc2)O3)cc1 (centres undefined)
15,144 to 146,CC1=CC(c2cccc(OC(F)(F)F)c2)C2=C(CCCC2=O)N1 (centres undefined)
16,204 to 206,O=C1N(Cc2ccc(N3CCOCC3)cn2)c2ccccc2C12COc1cc3c(cc12)OCCO3 (centres undefined)
17,218,COc1c(C)c(C(=O)c2ccc3nc(C)oc(=O)c3c2)n2ccccc12

row,melting point [°C],Compound
1,123 to 125,O=C(NCc1ccccn1)c1ccc2cnccc2n1
2,177 to 178,O=C1CCc2nc(-c3ccccc3)ccc21
3,235 to 236,CCCOc1ccccc1-c1nc2nc(NC)ncc2c(=O)[nH]1
4,154 to 155,COc1cc(N2CCN(Cc3ccccc3)CC2)c2nccc(C)c2c1
5,89 to 90,COc1ccc(C2=NN(CC(=O)c3ccc4ccccc4c3)C(=O)[C@H]3CCCC[C@@H]23)cc1OC (relative stereo)
6,137 to 138,CC(C)Cn1c(=O)n(C)c(=O)c2cc(Cc3cccc4ccccc34)sc21
7,161 to 163,CN1C(=O)CCC2(C)c3ccc(Sc4cncc5ccccc45)cc3CCC12 (centres undefined)
8,126 to 127,Cc1oc(-c2ccccc2)nc1COc1cc(COc2nn(C)cc2CC(=O)O)ccn1
9,120,CCC1(Cc2ccccc2)C(=O)N(C)C(=Cc2ccccc2C#N)C(=O)N1C (centres undefined)
10,164 to 165,CC(C)c1nc(-c2ccccc2)c(F)c(-c2ccc(F)cc2)c1CO
11,149 to 151,O=C(c1ccc(F)c(F)c1)N1CCC[C@H](c2nc(-c3ccccc3)no2)C1
12,130 to 132,O=Cc1cc(C(F)(F)F)ccc1Sc1ccccc1F
13,263 to 264,O=C(NCc1cccnc1)c1[nH]c2ccc(Cl)cc2c1S(=O)(=O)c1ccccc1
14,316 to 317,O=c1c2c(Cc3ccc(O)cc3)n[nH]c2c2cccnc2n1-c1ccccc1
15,157 to 160,Cc1noc(NS(=O)(=O)c2cc3ccccc3s2)c1C
16,195 to 201,c1ccc(CN2CCN(Cc3nc4ccccc4[nH]3)CC2)cc1
17,200 to 202,O=C1Cc2c(Oc3ccccc3)ccc(Cl)c2N1
